Data as given in PMC2784364, “VX-166: a novel potent small molecule caspase inhibitor as a potential therapy for sepsis” (Critical Care, 2009).
“Also recorded” adds a separate entry of the source.

Key:
cathepsin B = molecular target: T1, cathepsin B (Homo sapiens, UniProt P07858); experiment: Cathepsin B counter-screen; type: biochemical; conditions: highest concentration tested
T1 construct: purchased Merck Biosciences Ltd. (Nottingham, UK)
Protocol: (§1) Active recombinant caspase-1, -3, -4, -7 and -8 were prepared as described previously. Caspase-2 was purchased from Biomol (Exeter, UK), caspase-6 from BD Biosciences (Oxford, UK), caspase-9 from Europa Bioproducts Ltd. (Cambridge, UK) and caspase-10 from Chemicon International Inc. (Harrow, UK). Cathepsin B and granzyme B were purchased from Merck Biosciences Ltd. (Nottingham, UK). Fluorogenic protease substrates were purchased from Bachem Ltd. (St. Helens, UK). All reactions were carried out at 37°C using a Molecular Devices (Wokingham, UK) Gemini plate-reader at 460 nm (excitation wavelength of 390 nm). Caspase inhibition assays were conducted, with minor modifications, as described by Margolin and colleagues. Irreversible kinetics were analysed by calculations of second-order inactivation rate constants (k) using GraphPad (La Jolla, CA, USA) Prism 4.0 software. A larger number for an inactivation rate constant indicates a greater degree of inactivation. To determine the inhibitory effect on cathepsin B, 4.25 nM of the enzyme were added to 250 μM z-RR-AMC in 10 mM 2-morpholino-ethanesulfonic acid pH 6.0, 1 mM DTT, 1 mM EDTA and 0.03% Brij35 in the presence or absence of VX-166 and the reaction monitored continuously over 15 minutes. Granzyme B was assayed, with minor modifications, as described by Thornberry and colleagues. […]

thymocytes = experiment: CLP rat, thymocyte apoptosis by flow cytometry; type: in vivo; conditions: 20 hours, 25 mg/ml pump, n = 10
Protocol: CLP studies were performed in accordance with the National Institutes of Health guidelines for the use of experimental animals and were approved by the Institutional Animal Care and Use Committee of the Feinstein Institute for Medical Research. Adult male Sprague-Dawley rats (weighing 275 to 325 g, Charles River Laboratories, Wilmington, MA, USA) were fasted overnight then anaesthetised with isoflurane. The caecum was exposed via a 2 cm midline incision. It was ligated just distal to the ileocaecal valve, then punctured twice with an 18-gauge needle and gently squeezed to release a small amount of faecal material to ensure patency of the perforation sites before the abdominal incision was closed. Sham-operated rats underwent the same procedure with the exception that the caecum was neither ligated nor punctured. Animals received subcutaneous fluids (30 ml/kg saline) immediately after the procedure. No antibiotics were administered. In the 7 and 10 day survival studies animals were re-anaesthetised 20 hours after CLP, the perforated caecum was removed and the abdominal cavity washed twice with 40 ml of warm, sterilised saline. The abdominal cavity was closed, anaesthetics withdrawn and rats returned to their cages where they were allowed free access to food and water. In the 20 hour endpoint study the caecum was not removed. […]
Rat PBMC were isolated from heparinised blood by Ficoll Paque (GE Healthcare Bio-Sciences Corp., Piscataway, NJ, USA) density gradient centrifugation and washed three times with PBS (Invitrogen, Carlsbad, CA, USA). […] Cells were then washed twice in PBS, counted and reconstituted in Ca^2+-rich Annexin-V binding buffer (BD Biosciences, San Jose, CA, USA) at a concentration of 1 × 10^7 cells/ml. […] Cells were then analysed by flow cytometry with the FACS-Calibur (BD Biosciences, San Jose, CA, USA) and percentages of viable (Annexin-V^-/PI^-), early apoptotic (Annexin-V^+/PI^-), late apoptotic (Annexin-V^+/PI^+) and necrotic (Annexin-V^-/PI^+) cells were determined.

[1] = test system: IL-2 release from peripheral blood mononuclear cells; experiment: IL-2 release from anti-CD3/CD28 stimulated PBMC; type: cell-based, human; conditions: at 100 μM
Protocol: PBMC from healthy donors were isolated as described above. To the wells of a 96-well plate previously coated with 1.5 μg/ml anti-hCD3 (Serotec, Kidlington, UK), 5 × 10^5 cells/ml and 1 μg/ml anti-hCD28 (BD Biosciences, Oxford, UK) were added. Plates were then incubated for 24 hours in the presence or absence of VX-166 or the calcineurin inhibitor FK506 (Merck Biosciences Ltd., Nottingham, UK). IL-2 release into the supernatant was subsequently determined by ELISA (R&D Systems, Abingdon, UK) following the manufacturer's instructions.

[2] = Counterscreening panel (MDS Pharma Services); conditions: 5 μM, data not shown
Protocol: as §1

IL-1β = experiment: CLP rat, plasma IL-1β by ELISA; type: in vivo; conditions: 20 hours, 25 mg/ml pump, n = 10, P < 0.05
Protocol: CLP studies were performed in accordance with the National Institutes of Health guidelines for the use of experimental animals and were approved by the Institutional Animal Care and Use Committee of the Feinstein Institute for Medical Research. Adult male Sprague-Dawley rats (weighing 275 to 325 g, Charles River Laboratories, Wilmington, MA, USA) were fasted overnight then anaesthetised with isoflurane. The caecum was exposed via a 2 cm midline incision. It was ligated just distal to the ileocaecal valve, then punctured twice with an 18-gauge needle and gently squeezed to release a small amount of faecal material to ensure patency of the perforation sites before the abdominal incision was closed. Sham-operated rats underwent the same procedure with the exception that the caecum was neither ligated nor punctured. […]
Blood samples were centrifuged at 1500 g for 15 minutes at 4°C, the plasma was removed and stored at -80°C until analysis. Plasma IL-1β levels were determined by ELISA (R&D Systems Inc., Minneapolis, MN, USA) following the manufacturer's instructions. Plasma endotoxin levels were determined using a Limulus amebocyte lysate (LAL) kit (Associates of Cape Cod, Inc., East Falmouth, MA, USA) according to the manufacturer's instruction. […] The optical density was determined at 405 nm using a spectrophotometer. The levels of endotoxin were then calculated and expressed as EU/ml.

Q: What does the source list for `CCC(C(=O)NC(CC(=O)O)C(=O)COc1c(F)c(F)cc(F)c1F)n1cccc(NC(=O)OC)c1=O` (stereo not shown) [VX-166]?
A: inhibition at 50 µM (cathepsin B): 19%; level of necrotic thymocytes between groups (thymocytes): remained unchanged; percentage of early apoptotic thymocytes vs vehicle CLP group (thymocytes): significantly inhibited thymic atrophy and lymphocyte apoptosis; also recorded: reduced the percentage of early apoptotic thymocytes; percentage of viable thymocytes vs vehicle CLP group (thymocytes): significantly increased the percentage of viable cells; inhibition of T-cell activation in vitro [1]: partial inhibition; cross-reactivity in panel of 83 enzymes, ion channels and receptors (28 proteases) [2]: No significant cross-reactivity; plasma IL-1β level vs vehicle CLP (IL-1β): significant reduction
